This passage reports IC50 results from patent publication US20070049593A1 (priority 2004, published 2007).

Where a name gives a salt, the structure may show the parent alone. A value given as a limit tells only on which side of the number the result lay.

The target in this assay is T1, HCV polymerase (Hepatitis C virus genotype 1b, UniProt P26663).
T1 construct: a region encoding NS5B (J Virol 1991 March, 65(3), 1105-13, 544 amino acids after deletion of 47 amino acids on the C-terminal); 6xHis (C); made in house; host or cells: Escherichia coli
T1 sequence (P26663 2420-2963): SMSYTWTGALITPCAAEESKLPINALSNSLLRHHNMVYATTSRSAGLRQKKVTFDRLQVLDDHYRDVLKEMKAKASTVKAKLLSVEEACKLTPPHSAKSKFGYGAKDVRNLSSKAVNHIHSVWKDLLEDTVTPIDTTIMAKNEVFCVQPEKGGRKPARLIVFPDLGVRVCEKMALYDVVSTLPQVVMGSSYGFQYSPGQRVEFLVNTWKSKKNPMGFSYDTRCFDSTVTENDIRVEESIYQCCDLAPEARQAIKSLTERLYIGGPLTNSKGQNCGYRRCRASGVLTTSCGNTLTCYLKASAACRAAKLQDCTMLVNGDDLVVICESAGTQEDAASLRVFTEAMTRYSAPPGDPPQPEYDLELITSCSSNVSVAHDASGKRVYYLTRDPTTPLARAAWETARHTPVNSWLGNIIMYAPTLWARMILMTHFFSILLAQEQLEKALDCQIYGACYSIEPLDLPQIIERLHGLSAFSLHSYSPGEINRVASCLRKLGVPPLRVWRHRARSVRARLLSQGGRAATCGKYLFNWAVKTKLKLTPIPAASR
The assay is described as follows: biochemical. Further details: species or system HCV BK strain. The gist of the method: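 His-tagged NS5B (BK strain, 47-aa C-terminal deletion, E. coli-expressed) at 0.5 μg/ml copied 5 μg/ml run-off RNA bearing the HCV 3′ UTR with 2 μM UTP plus [3H]UTP, 50 μM ATP/GTP, in pH 7.5 Tris with 5 mM MgCl2, 25 °C, 90 min. TCA-precipitated RNA was counted and IC50 calculated.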

As usually defined, the IC50 is the concentration that inhibits the measured activity by half.

Compound `COc1ccc2c(c1)N(C(C)C)CCn1c-2c(C2CCCCC2)c2ccc(C(=O)O)cc21` [Example 1-475, 13-cyclohexyl-5-isopropyl-3-methoxy-6,7-dihydro-5H-benzo[5,6][1,4]diazepino[7,1-a]indole-10-carboxylic acid monohydrochloride] came in with an IC50 below 100 nM.

Consider `Cc1ccc2c(c1)N(CCN1CCC[C@@H](CCO)C1)CCn1c-2c(C2CCCCC2)c2ccc(C(=O)O)cc21` [Example 1-494, 13-cyclohexyl-5-{2-[(S)-3-(2-hydroxyethyl)piperidin-1-yl)ethyl}-3-methyl-6,7-dihydro-5H-benzo[5,6][1,4]diazepino[7,1-a]indole-10-carboxylic acid dihydrochloride], for which the IC50 is below 100 nM.

The compound `Cc1ccc2c(c1)N(C)CCn1c-2c(C2CCCCC2)c2ccc(C(=O)NC3(C(=O)Nc4ccc(/C=C/C(=O)O)cc4)CCC3)nc21` [Example 8-9, (E)-3-[4-({1-[(12-cyclohexyl-3,5-dimethyl-6,7-dihydro-5H-5,7a,8-triazadibenzo[a,e]azulene-9-carbonyl)amino]cyclobutanecarbonyl}amino)phenyl]acrylic acid] yielded an IC50 below 100 nM.

`CCOc1ccc2c(c1)N(CCN1CCCCC1)CCn1c-2c(C2CCCCC2)c2ccc(C(=O)O)cc21` [Example 1-276, 13-cyclohexyl-3-ethoxy-5-[2-(piperidin-1-yl)ethyl]-6,7-dihydro-5H-benzo[5,6][1,4]diazepino[7,1-a]indole-10-carboxylic acid dihydrochloride]: the concentration for half-maximal inhibition (IC50) is below 100 nM.

On to `CCc1ccc2c(c1)N(CCN1CCCCCC1)CCn1c-2c(C2CCCCC2)c2ccc(C(=O)O)cc21` [Example 1-338, 5-[2-(azepan-1-yl)ethyl]-13-cyclohexyl-3-ethyl-6,7-dihydro-5H-benzo[5,6][1,4]diazepino[7,1-a]indole-10-carboxylic acid dihydrochloride], for which the IC50 is below 100 nM.

Regarding `CCN(CCO)CCCN1CCn2c(c(C3CCCCC3)c3ccc(C(=O)O)cc32)-c2ccc(C)cc21` [Example 1-512, 13-cyclohexyl-5-{3-[N-ethyl-N-(2-hydroxyethyl)amino]propyl}-3-methyl-6,7-dihydro-5H-benzo[5,6][1,4]diazepino[7,1-a]indole-10-carboxylic acid dihydrochloride], the IC50 was below 100 nM.

The compound `O=C(CN1CCn2c(c(C3CCCCC3)c3ccc(C(=O)O)cc32)-c2ccccc21)NC12CC3CC(CC(C3)C1)C2` [Example 1-195, 5-(adamantan-1-ylcarbamoylmethyl)-13-cyclohexyl-6,7-dihydro-5H-benzo[5,6][1,4]diazepino[7,1-a]indole-10-carboxylic acid monohydrochloride] came in with an IC50 below 100 nM.

The compound `Cc1ccc2c(c1)N(CCN1CCCCC1)CCn1c-2c(C2CCCCC2)c2ccc(C(=O)O)cc21` [Example 1-108, 13-cyclohexyl-3-methyl-5-[2-(piperidin-1-yl)ethyl]-6,7-dihydro-5H-benzo[5,6][1,4]diazepino[7,1-a]indole-10-carboxylic acid dihydrochloride] had a half-maximal inhibitory concentration (IC50) below 100 nM.

As for `O=C(O)c1ccc2c(C3CCCCCC3)c3n(c2c1)CCN(CCN1CCCCC1)c1cc(Cl)ccc1-3` [Example 1-486, 3-chloro-13-cycloheptyl-5-[2-(piperidin-1-yl)ethyl]-6,7-dihydro-5H-benzo[5,6][1,4]diazepino[7,1-a]indole-10-carboxylic acid], the IC50 was below 100 nM.

For the compound `CC1CN(CCN2CCn3c(c(C4CCCCC4)c4ccc(C(=O)O)cc43)-c3ccccc32)CCO1` (centres unmarked) [Example 1-255, 13-cyclohexyl-5-[2-(2-methylmorpholin-4-yl)ethyl]-6,7-dihydro-5H-benzo[5,6][1,4]diazepino[7,1-a]indole-10-carboxylic acid dihydrochloride], the IC50 is below 100 nM.

In turn, `CCc1ccc2c(c1)N(CCN1CCCC(CC)C1)CCn1c-2c(C2CCCCC2)c2ccc(C(=O)O)cc21` (centres unmarked) [Example 1-350, 13-cyclohexyl-3-ethyl-5-[2-(3-ethylpiperidin-1-yl)ethyl]-6,7-dihydro-5H-benzo[5,6][1,4]diazepino[7,1-a]indole-10-carboxylic acid dihydrochloride] came in with an IC50 below 100 nM.
